Reference: US20210130308A1, “MODULATORS OF EUKARYOTIC INITIATION FACTOR 2” (Denali Therapeutics Inc., priority 2018, published 2021)

Tested on: ATF4 translation (ISR pathway activation)
Experiment: ATF4 Nano Luciferase reporter integrated stress response (ISR) assay in H4 ATF4-NLuc (clone 17) cells
Format: cell-based, human
Conditions: H4 ATF4-NLuc (clone 17) cells; compounds 30 minutes at 37 degree Celsius, then 50 um sodium arsenite for 6 additional hours; luminescence readout; read-out: IC50
From the text: Cellular stress leads to activation of the integrated stress response pathway through one of four eukaryotic initiation factor 2α kinases and halts global translation, while allowing for the translation of select transcripts like ATF4 (activating transcription factor 4) that are important for the response to cellular stress. During normal conditions, small open reading frames (ORFs) in the 5′ UTR of ATF4 occupy the ribosome and prevent translation of the coding sequence of ATF4. During stress conditions however, the ribosome scans past these upstream ORFs and preferentially begins translation at the coding sequence of ATF4. In this way, the translation, and thus protein level of ATF4 is a readout of ISR pathway activation. Thus, a fusion of the uORFs and the beginning of the coding sequence of ATF to a common cellular reporter like nano-luciferase allows for a sensitive and high-throughput readout of ISR pathway activity.
Compounds as provided herein were tested in the following assay. The ATF4 Nano Luciferase reporter was constructed by fusing the human full length 5′ untranslated region (5′-UTR) and a small portion of the coding sequence of the ATF4 gene upstream of the Nano Luciferase (NLuc) coding sequence lacking it's start codon. Specifically, nucleotides +1 through +364 (relative to the transcriptional start site) of ATF4 transcript variant 2 (NCBI NM_182810.2) flanked 5′ by EcoRI and 3′ by BamHI restriction enzyme sites were synthesized and cloned into the EcoRI/BamHI cloning sites of pLVX-EF1a-IRES-Puro lentivirus vector (Clontech). […]. H4 cells were selected with […] Puromycin, and clonal cell lines generated by limiting dilution. We utilized this cell line to generate an integrated stress response (ISR) assay to evaluate the activity of ISR pathway inhibitors via luminescence readout. The H4 ATF4-NLuc (clone 17) cell line is plated at a density of […] in 96-well or 384-well respectively in DMEM+10% fetal bovine serum. 24-hours later test compounds diluted in dimethyl sulfoxide (DMSO) are added for 30 minutes at 37 degree Celsius, followed by ISR pathway activation with 50 um sodium arsenite aqueous solution for 6 additional hours. Nano Glo luciferase reagent (N1150, Promega) is added according to manufacturer instructions and the luminescence signal (corresponding to the level of ATF4 translation and thus ISR pathway activation) is read with a standard plate reader with luminescence detection capabilities.
In the table below, activity of the tested compounds is provided in Table 3 as follows: +++=IC50<1 μM; ++=IC50 1-10 μM; +=IC50>10 μM.

SMILES	IC50
O=C(COc1ccc(Cl)cc1)NC12CC(NC(=O)COC3CC(C(F)(F)F)C3)(C1)C2 (single isomer, unassigned) [3 (second eluting isomer), 2-(4-chlorophenoxy)-N-(3-(2-(3-(trifluoromethyl)cyclobutoxy)acetamido)bicyclo[1.1.1]pentan-1-yl)acetamide]	< 1 µM
O=C(COc1ccc(Cl)c(F)c1)NC12CC(NC(=O)COC3CC(C(F)(F)F)C3)(C1)C2 (single isomer, unassigned) [12 (second eluting isomer), 2-(4-chloro-3-fluorophenoxy)-N-(3-(2-(3-(trifluoromethyl)cyclobutoxy)acetamido)bicyclo[1.1.1]pentan-1-yl)acetamide]	< 1 µM
O=C(COc1ccc(Cl)c(F)c1)NC1CC(OCCOC2CC(OC(F)(F)F)C2)C1 (single isomer, unassigned) [42 (isomer 2), 2-(4-chloro-3-fluoro-phenoxy)-N-[3-[2-[3-cis-(trifluoromethoxy)cyclobutoxy]ethoxy]-trans-cyclobutyl]acetamide]	< 1 µM

Same assay, conditions: Homo sapiens, 0.5 h

SMILES	IC50
O=C(COc1ccc(Cl)cc1)NC12CC(NC(=O)COC3CCC3)(C1)C2 [Example 1, 2-(4-chlorophenoxy)-N-(3-(2-cyclobutoxyacetamido)bicyclo[1.1.1]pentan-1-yl)acetamide]	< 1 µM
O=C(COc1cccc(Cl)c1F)NC12CC(NC(=O)COC3CCC3)(C1)C2 [Example 13, 2-(3-chloro-2-fluoro-phenoxy)-N-[3-[[2-(cyclobutoxy)acetyl]amino]-1-bicyclo[1.1.1]pentanyl]acetamide]	1 to 10 µM

Same assay, conditions: Homo sapiens, 0.5 h; H4 ATF4-NLuc (clone 17) cells; compounds 30 minutes at 37 degree Celsius, then 50 um sodium arsenite for 6 additional hours; luminescence readout; read-out: IC50

SMILES	IC50
O=C(COc1ccc(Cl)cc1)NC12CC(NC(=O)COC3CC(C(F)(F)F)C3)(C1)C2 (single isomer, unassigned) [3 (first eluting isomer), 2-(4-chlorophenoxy)-N-(3-(2-(3-(trifluoromethyl)cyclobutoxy)acetamido)bicyclo[1.1.1]pentan-1-yl)acetamide]	< 1 µM
O=C(COc1ccc(Cl)c(F)c1)NC12CC(NC(=O)COC3CC(C(F)(F)F)C3)(C1)C2 (single isomer, unassigned) [12 (first eluting isomer), 2-(4-chloro-3-fluorophenoxy)-N-(3-(2-(3-(trifluoromethyl)cyclobutoxy)acetamido)bicyclo[1.1.1]pentan-1-yl)acetamide]	< 1 µM
O=C(COc1ccc(Cl)c(F)c1)NC1CC(OCCOC2CC(OC(F)(F)F)C2)C1 (single isomer, unassigned) [42 (isomer 1), 2-(4-chloro-3-fluoro-phenoxy)-N-[3-[2-[3-cis-(trifluoromethoxy)cyclobutoxy]ethoxy]-cis-cyclobutyl]acetamide]	< 1 µM
O=C(COC1CC(OC(F)(F)F)C1)NC12CC(NC(=O)[C@H]3CCc4cc(C(F)(F)F)ccc4O3)(C1)C2 (single isomer, unassigned) [Example 72 (first eluting isomer), N-(3-(2-(3-cis-(trifluoromethoxy)cyclobutoxy)acetamido)bicyclo[1.1.1]pentan-1-yl)-6-(trifluoromethyl)chroman-2-carboxamide]	< 1 µM
O=C(COC1CC(OC(F)(F)F)C1)NC12CC(NC(=O)[C@@H]3CCc4cc(C(F)(F)F)ccc4O3)(C1)C2 (single isomer, unassigned) [Example 72 (second eluting isomer), N-(3-(2-(3-cis-(trifluoromethoxy)cyclobutoxy)acetamido)bicyclo[1.1.1]pentan-1-yl)-6-(trifluoromethyl)chroman-2-carboxamide]	< 1 µM
O=C(COc1ccc(Cl)c(F)c1)NC1CCN(c2ccnc(C3CC(OC(F)(F)F)C3)n2)CC1 [58 (cis isomer), 2-(4-chloro-3-fluorophenoxy)-N-(1-(2-(3-cis-(trifluoromethoxy)cyclobutyl)pyrimidin-4-yl)piperidin-4-yl)acetamide]	< 1 µM
O=C(COc1ccc(Cl)cc1)NC12CC(NC(=O)COC3CC(F)(F)C3)(C1)C2 [Example 2, 2-(4-chlorophenoxy)-N-(3-(2-(3,3-difluorocyclobutoxy)acetamido)bicyclo[1.1.1]pentan-1-yl)acetamide]	< 1 µM
O=C(COc1ccc(Cl)cc1)NC12CC(NC(=O)COC3CC4(CCC4)C3)(C1)C2 [Example 4, 2-(4-chlorophenoxy)-N-(3-(2-(spiro[3.3]heptan-2-yloxy)acetamido)bicyclo[1.1.1]pentan-1-yl)acetamide]	< 1 µM
CC1(C)CC(OCC(=O)NC23CC(NC(=O)COc4ccc(Cl)cc4)(C2)C3)C1 [Example 5, 2-(4-chlorophenoxy)-N-(3-(2-(3,3-dimethylcyclobutoxy)acetamido)bicyclo[1.1.1]pentan-1-yl)acetamide]	< 1 µM
N#CC1CC(OCC(=O)NC23CC(NC(=O)COc4ccc(Cl)cc4)(C2)C3)C1 (stereo not drawn) [Example 6, 2-(4-chlorophenoxy)-N-(3-(2-(3-cyanocyclobutoxy)acetamido)bicyclo[1.1.1]pentan-1-yl)acetamide]	< 1 µM
N#CC1CC(OCC(=O)NC23CC(NC(=O)COc4ccc(Cl)c(F)c4)(C2)C3)C1 (stereo not drawn) [Example 7, 2-(4-chloro-3-fluorophenoxy)-N-(3-(2-(3-cyanocyclobutoxy)acetamido)bicyclo[1.1.1]pentan-1-yl)acetamide]	< 1 µM
CC1(OCC(=O)NC23CC(NC(=O)COc4ccc(Cl)cc4)(C2)C3)CC(C#N)C1 (stereo not drawn) [Example 8, 2-(4-chlorophenoxy)-N-(3-(2-(3-cyano-1-methylcyclobutoxy)acetamido)bicyclo[1.1.1]pentan-1-yl)acetamide]	1 to 10 µM
O=C(COc1ccc(Cl)c(F)c1)NC12CC(NC(=O)COC3CC(F)C3)(C1)C2 (stereo not drawn) [Example 9]	< 1 µM
O=C(COc1ccc(Cl)c(F)c1)NC12CC(NC(=O)COC3CCC3)(C1)C2 [Example 10, 2-(4-chloro-3-fluorophenoxy)-N-(3-(2-cyclobutoxyacetamido)bicyclo[1.1.1]pentan-1-yl)acetamide]	< 1 µM
CC1(C#N)CC(OCC(=O)NC23CC(NC(=O)COc4ccc(Cl)c(F)c4)(C2)C3)C1 (stereo not drawn) [Example 11, 2-(4-chloro-3-fluorophenoxy)-N-(3-(2-(3-cyano-3-methylcyclobutoxy)acetamido)bicyclo[1.1.1]pentan-1-yl)acetamide]	< 1 µM
N#CC1CC(OCC(=O)N2CCC3(CC2)CC(NC(=O)COc2ccc(Cl)c(F)c2)C3)C1 (stereo not drawn) [Example 14, 2-(4-chloro-3-fluoro-phenoxy)-N-[7-[2-(3-cyanocyclobutoxy)acetyl]-7-azaspiro[3.5]nonan-2-yl]acetamide]	< 1 µM
O=C(COc1ccc(Cl)c(F)c1)NC1CC2(CCN(C(=O)COC3CCC3)CC2)C1 [Example 15, 2-(4-chloro-3-fluoro-phenoxy)-N-[7-[2-(cyclobutoxy)acetyl]-7-azaspiro[3.5]nonan-2-yl]acetamide]	< 1 µM
O=C(COc1ccc(Cl)c(F)c1)NC1CC2(CCN(C(=O)COC3CC(C(F)(F)F)C3)CC2)C1 (stereo not drawn) [Example 16, 2-(4-chloro-3-fluoro-phenoxy)-N-[7-[2-[3-(trifluoromethyl)cyclobutoxy]acetyl]-7-azaspiro[3.5]nonan-2-yl]acetamide]	< 1 µM
O=C(COc1ccc(Cl)c(F)c1)NC1CC2(C1)CN(C(=O)COC1CC(C(F)(F)F)C1)C2 (stereo not drawn) [Example 17, 2-(4-chloro-3-fluoro-phenoxy)-N-[2-[2-[3-(trifluoromethyl)cyclobutoxy]acetyl]-2-azaspiro[3.3]heptan-6-yl]acetamide]	< 1 µM
